The values that follow come from US9371319B2, “Pyrrolopyridineamino derivatives as MPS1 inhibitors” (priority 2011, dated 2016).

The term IC50 denotes the midpoint of a concentration-inhibition curve. Low values mean higher potency, high ones lower potency.

Molecules are shown by their SMILES.

This assay has as its target T1, full length MPS1 (Homo sapiens, UniProt P33981).
T1 sequence (P33981 1-857): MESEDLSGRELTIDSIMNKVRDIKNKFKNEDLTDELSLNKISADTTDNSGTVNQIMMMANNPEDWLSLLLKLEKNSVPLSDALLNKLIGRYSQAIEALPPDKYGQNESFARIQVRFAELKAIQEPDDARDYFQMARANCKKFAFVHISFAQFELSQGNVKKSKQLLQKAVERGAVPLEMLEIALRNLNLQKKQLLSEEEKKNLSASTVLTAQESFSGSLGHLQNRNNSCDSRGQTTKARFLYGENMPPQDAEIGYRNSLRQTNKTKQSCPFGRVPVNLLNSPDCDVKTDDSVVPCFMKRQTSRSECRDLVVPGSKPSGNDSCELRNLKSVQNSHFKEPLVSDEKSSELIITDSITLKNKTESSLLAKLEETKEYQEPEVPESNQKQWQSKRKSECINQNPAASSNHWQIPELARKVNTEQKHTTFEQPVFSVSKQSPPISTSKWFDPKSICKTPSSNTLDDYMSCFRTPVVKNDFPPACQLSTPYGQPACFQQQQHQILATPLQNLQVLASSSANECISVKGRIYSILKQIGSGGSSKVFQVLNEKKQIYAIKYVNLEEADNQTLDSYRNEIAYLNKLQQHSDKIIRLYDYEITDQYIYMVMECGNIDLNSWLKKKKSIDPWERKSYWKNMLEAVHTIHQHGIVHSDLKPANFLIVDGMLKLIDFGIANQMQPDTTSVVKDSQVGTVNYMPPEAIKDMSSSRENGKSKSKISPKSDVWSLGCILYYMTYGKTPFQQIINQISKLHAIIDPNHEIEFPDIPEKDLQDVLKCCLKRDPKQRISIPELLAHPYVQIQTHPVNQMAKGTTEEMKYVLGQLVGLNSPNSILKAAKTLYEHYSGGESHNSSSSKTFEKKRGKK
Description: biochemical. How it is done: Measurement of Inhibition of MPS1 Kinase
(5 μM), ATP (10 μM), either DMSO (1% v/v) or the test compound (in the range 0.25 nM-100 μM in 1% DMSO) and assay buffer (50 mM HEPES (pH 7.0), 0.02% NaN3, 0.01% BSA, 0.1 mM Orthovandate, […], 1 μM DTT, Roche protease inhibitor). The reaction was carried out for 60 min at room temperature and stopped by the addition of buffer (10 μl) containing 20 mM EDTA, 0.05% (v/v) Brij-35, in 0.1M HEPES-buffered saline (Free acid, Sigma, UK). The plate was read on a Caliper EZ reader II (Caliper Life Sciences).
The % inhibition of the compounds is calculated relative to the means of selected control wells. […] The % inhibitions at each concentration are then fitted to a 4 parameter logistic fit: y=(a+((b−a)/(1+((c/x^d)))) where a=asym min, b=asym max, c=IC50 and d=hill coefficient
`CN(C)C(=O)c1ccc(Nc2cc3c(cn2)cc(-c2cnn(C)c2)n3CC2CCCC2)c(Cl)c1` [Example 64, 3-Chloro-4-(1-(cyclopentylmethyl)-2-(1-methyl-1H-pyrazol-4-yl)-1H-pyrrolo[3,2-c]pyridin-6-ylamino)-N,N-dimethylbenzamide]: the IC50 was 47 nM.

In the case of `COc1cc(CN(C)C)ccc1Nc1cc2c(cn1)cc(-c1cnn(C)c1)n2C(=O)OC(C)(C)C` [Example 35], the IC50 was 8 nM.

As to `O=S1(=O)CCN(Cc2ccc(Nc3cc4[nH]c(-c5cn[nH]c5)cc4cn3)cc2)CC1` [Example 175, 2-(1H-Pyrazol-4-yl)-N-(4-(thiomorpholinomethyl)phenyl)-1H-pyrrolo[3,2-c]pyridin-6-amine-S,S-dioxide], the IC50 came out at 4 nM.

Molecule `Cc1ncc(-c2ccc(Nc3cc4c(cn3)cc(-c3cnco3)n4C(=O)OC(C)(C)C)c(Cl)c2)n1C` [Example 107] registered an IC50 of 2 nM.

Consider `COc1cc(CN2CCS(=O)(=O)CC2)ccc1Nc1cc2[nH]c(-c3cnn(C)c3)cc2cn1` [Example 116, N-(2-Methoxy-4-(thiomorpholinomethyl)phenyl)-2-(1-methyl-1H-pyrazol-4-yl)-1H-pyrrolo[3,2-c]pyridin-6-amine-S,S-dioxide], for which it took 10 nM to reach half-maximal inhibition (IC50).

Molecule `Cc1ncc(-c2ccc(Nc3cc4c(cn3)cc(-c3cnn(C)c3)n4CC3CC3)c(Cl)c2)n1C` [Example 105] yielded an IC50 of 29 nM.

Consider `Cc1nn(C)cc1-c1ccc(Nc2cc3c(cn2)cc(-c2cnn(C)c2)n3C(=O)OC(C)(C)C)c(Cl)c1` [Example 21], for which half-maximal inhibition (IC50) required 7 nM.

In turn, `COc1cc(C(=O)NC2CCN(C)CC2)ccc1Nc1cc2[nH]c(-c3cnn(C)c3)cc2cn1` [Example 111, 3-Methoxy-4-((2-(1-methyl-1H-pyrazol-4-yl)-1H-pyrrolo[3,2-c]pyridin-6-yl)amino)-N-(1-methylpiperidin-4-yl)benzamide] showed an IC50 of 42 nM.

Molecule `CN(C)C(=O)c1ccc(Nc2cc3c(cn2)c(Cl)c(-c2cnn(C)c2)n3C(=O)OC(C)(C)C)c(Cl)c1` [Example 65] registered an IC50 of 127 nM.

`Cc1ncc(-c2ccc(Nc3cc4c(cn3)cc(-c3cnn(C)c3)n4C(=O)OC(C)C)c(Cl)c2)n1C` [Example 83] yielded an IC50 of 2 nM.

As for `CC(C)OC(=O)n1c(-c2cnn(C)c2)cc2cnc(Nc3ccc(-c4cnn(C)c4)cc3Cl)cc21` [Example 76], the IC50 worked out at 17 nM.

The molecule `COc1cc(C(F)(F)F)ccc1Nc1cc2[nH]c(-c3cnn(C)c3)cc2cn1` [Example 156, N-(2-Methoxy-4-(trifluoromethyl)phenyl)-2-(1-methyl-1H-pyrazol-4-yl)-1H-pyrrolo[3,2-c]pyridin-6-amine] registered an IC50 of 164 nM.

Take `COc1cc(CN2CCCC2)ccc1Nc1cc2c(cn1)cc(-c1cnn(C)c1)n2C(=O)OC(C)(C)C` [Example 33]: half-maximal inhibition (IC50) was put at 16 nM.

As for `CN(C)C(=O)c1ccc(Nc2cc3[nH]c(-c4cnco4)c(Cl)c3cn2)c(Cl)c1` [Example 178, 3-Chloro-4-(3-chloro-2-(oxazol-5-yl)-1H-pyrrolo[3,2-c]pyridin-6-ylamino)-N,N-dimethylbenzamide], the IC50 came out at 3 nM.

For `COc1ccc(C(=O)N(C)C)cc1Nc1cc2[nH]c(-c3cnn(C)c3)cc2cn1` [Example 114, 4-Methoxy-N,N-dimethyl-3-(2-(1-methyl-1H-pyrazol-4-yl)-1H-pyrrolo[3,2-c]pyridin-6-ylamino)benzamide], half-maximal inhibition (IC50) required 497 nM.

With `Cn1cc(-c2cc3cnc(Nc4ccc(-c5cncs5)cc4Cl)cc3n2C(=O)OC(C)(C)C)cn1` [Example 24], the IC50 worked out at 9 nM.

With `Cc1oncc1-c1ccc(Nc2cc3c(cn2)cc(-c2cnn(C)c2)n3C(=O)OC(C)(C)C)c(Cl)c1` [Example 23], the IC50 worked out at 11 nM.

`Cc1ncc(-c2ccc(Nc3cc4c(cn3)cc(-c3cnn(C)c3)n4C(=O)OC(C)(C)C)c(Cl)c2)n1C` [Example 47] yielded an IC50 of 5 nM.

`CN(C)C(=O)c1ccc(Nc2cc3c(cn2)cc(-c2cnn(C)c2)n3CC2CC2)c(Cl)c1` [Example 66] showed an IC50 of 30 nM.

Turning to `Cn1cc(-c2cc3cnc(Nc4cccc(OCC#N)c4)cc3[nH]2)cn1` [Example 141, 2-(3-(2-(1-Methyl-1H-pyrazol-4-yl)-1H-pyrrolo[3,2-c]pyridin-6-ylamino)phenoxy)acetonitrile], the IC50 was found to be 132 nM.

With `Cn1cc(-c2cc3cnc(Nc4ccc(C(=O)N5CCCC5)cc4Cl)cc3n2C(=O)OC(C)(C)C)cn1` [Example 40], the IC50 came out at 4 nM.

The molecule `COC1CN(C(=O)c2ccc(Nc3cc4[nH]c(-c5cnn(C)c5)cc4cn3)c(Cl)c2)C1` [Example 142, (3-Chloro-4-(2-(1-methyl-1H-pyrazol-4-yl)-1H-pyrrolo[3,2-c]pyridin-6-ylamino)phenyl)(3-methoxyazetidin-1-yl)methanone] came in with an IC50 of 10 nM.

As to `CN(C)C(=O)c1ccc(Nc2cc3c(cn2)cc(-c2cnn(C)c2)n3C(=O)OC2CCCC2)c(Cl)c1` [Example 72], the IC50 came to 3 nM.

In turn, `COc1ccc(Nc2cc3[nH]c(-c4cn[nH]c4)cc3cn2)c(OC)c1` [Example 160, N-(2,4-Dimethoxyphenyl)-2-(1H-pyrazol-4-yl)-1H-pyrrolo[3,2-c]pyridin-6-amine] registered an IC50 of 19 nM.

The molecule `Cn1cc(-c2cc3cnc(Nc4ccccc4C#N)cc3n2C(=O)OC(C)(C)C)cn1` [Example 54] registered an IC50 of 32 nM.

`COc1cc(CN2CCCC2)ccc1Nc1cc2[nH]c(-c3cnn(C)c3)cc2cn1` [Example 137, N-(2-methoxy-4-(pyrrolidin-1-ylmethyl)phenyl)-2-(1-methyl-1H-pyrazol-4-yl)-1H-pyrrolo[3,2-c]pyridin-6-amine] showed an IC50 of 25 nM.

Consider `COc1cc(C(=O)N2CCOCC2)ccc1Nc1cc2c(cn1)cc(-c1cnn(C)c1)n2C(=O)OC(C)(C)C` [Example 10], for which it took 5 nM to reach half-maximal inhibition (IC50).

The molecule `CN(C)C(=O)c1cc(Cl)c(Nc2cc3[nH]c(-c4cnn(C)c4)cc3cn2)c(Cl)c1` [Example 121, 3,5-Dichloro-N,N-dimethyl-4-(2-(1-methyl-1H-pyrazol-4-yl)-1H-pyrrolo[3,2-c]pyridin-6-ylamino)benzamide] gave an IC50 of 91 nM.

In turn, `Cn1cc(-c2ccc(Nc3cc4c(cn3)cc(-c3cnn(C)c3)n4C(=O)OC3CCCC3)c(Cl)c2)cn1` [Example 75] returned an IC50 of 12 nM.

As to `COc1ccc(Nc2cc3[nH]c(-c4cnn(Cc5cc(C)on5)c4)cc3cn2)c(OC)c1` [Example 173, N-(2,4-Dimethoxyphenyl)-2-(1-((5-methylisoxazol-3-yl)methyl)-1H-pyrazol-4-yl)-1H-pyrrolo[3,2-c]pyridin-6-amine], the IC50 was 207 nM.

In the case of `Cc1ncn(C)c1-c1ccc(Nc2cc3c(cn2)cc(-c2cnn(C)c2)n3C(=O)OC(C)(C)C)c(Cl)c1` [Example 63], the IC50 was 5 nM.

Consider `COc1ccc(Nc2cc3c(cn2)cc(-c2cn[nH]c2)n3C)cc1OC` [Example 126, N-(3,4-dimethoxyphenyl)-1-methyl-2-(1H-pyrazol-4-yl)-1H-pyrrolo[3,2-c]pyridin-6-amine], for which the IC50 turned out to be 26 nM.

Regarding `CN(C)C(=O)c1ccc(Nc2cc3[nH]c(-c4cnco4)cc3cn2)c(Cl)c1` [Example 180, 3-Chloro-N,N-dimethyl-4-(2-(oxazol-5-yl)-1H-pyrrolo[3,2-c]pyridin-6-ylamino)benzamide], inhibition was half-maximal at 5 nM (IC50).

Consider `FC(F)(F)c1ccccc1Nc1cc2[nH]c(-c3cn[nH]c3)cc2cn1` [Example 164, 2-(1H-Pyrazol-4-yl)-N-(2-(trifluoromethyl)phenyl)-1H-pyrrolo[3,2-c]pyridin-6-amine], for which the IC50 turned out to be 512 nM.

`Cn1cc(-c2cc3cnc(Nc4ccc(-c5cncn5C)cc4Cl)cc3n2C(=O)OC2CCC2)cn1` [Example 82] showed a half-maximal inhibitory concentration (IC50) of 5 nM.

`COC(=O)n1c(-c2cnn(C)c2)cc2cnc(Nc3ccc(-c4cnc(C)n4C)cc3Cl)cc21` [Example 86] returned a 50% inhibitory concentration (IC50) of 7 nM.

For the molecule `Cn1cc(-c2[nH]c3cc(Nc4ccc(S(C)(=O)=O)cc4Cl)ncc3c2Cl)cn1` [Example 197, 3-Chloro-N-(2-chloro-4-(methylsulfonyl)phenyl)-2-(1-methyl-1H-pyrazol-4-yl)-1H-pyrrolo[3,2-c]pyridin-6-amine], the midpoint of inhibition, the IC50, lay at 69 nM.

On to `CC(=O)c1ccccc1Nc1cc2c(cn1)cc(-c1cnn(C)c1)n2C(=O)OC(C)(C)C` [Example 9], for which the IC50 turned out to be 77 nM.
